The data set can be described thus: MALDI-TOF screening of Ni^2+ dependent hydrolysis in a combinatorial peptide library. The class given is physicochemical. The following applies: Ni^2+ 2 mM, pH 8.2, 10 mM Tris, score=24/tm. Put shortly:
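Sublibraries of Ac-Gly-Ala-Ser/Thr-X-His-Z-Lys-Phe-Leu-NH2, randomized at Z and fixed at X, were hydrolyzed at 1 mM total peptide with 2 mM Ni2+ in 10 mM Tris, pH 8.2, at 37 °C or 45 °C. Cleavage was scored visually in MALDI-TOF spectra at 2, 4, 6 and 8 h.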

Where [1] appears, read: CH3CO-Gly-Ala-Ser-X-His-Z-Lys-Phe-Leu-NH2 library, 37° C.
Setting [2] is: CH3CO-Gly-Ala-Ser-X-His-Z-Lys-Phe-Leu-NH2 library, 45° C.
[3] abbreviates: CH3CO-Gly-Ala-Thr-X-His-Z-Lys-Phe-Leu-NH2 library, 37° C.
Where [4] appears, read: CH3CO-Gly-Ala-Thr-X-His-Z-Lys-Phe-Leu-NH2 library, 45° C.

Ac-GASWHKKFL-NH2 [SWHK]: the “hydrolysis score from MALDI-TOF screening” value (“hydrolysis score” below) under setting [1] is on record as 4 (a score of 4 for detection at 6 hours) and the “hydrolysis score” value under setting [2] is reported as 12 (a score of 12, if it was seen to be partially hydrolysed at 2 hours).
Turning to Ac-GASWHLKFL-NH2 [SWHL], the “hydrolysis score” value under setting [1] is on record as 6 (a score of 6 for detection at 4 hours) and the “hydrolysis score” value under setting [2] is 12 (a score of 12, if it was seen to be partially hydrolysed at 2 hours).
For Ac-GASWHMKFL-NH2 [SWHM], in that order: 0 (a score of 0 if no trace of the product of hydrolysis was seen after 8 hours of incubation) and 3 (a score of 3 for detection at 8 hours).
With Ac-GASWHNKFL-NH2 [SWHN], the “hydrolysis score” value under setting [1] is listed as 0 (a score of 0 if no trace of the product of hydrolysis was seen after 8 hours of incubation) and the “hydrolysis score” value under setting [2] is on record as 0 (a score of 0 if no trace of the product of hydrolysis was seen after 8 hours of incubation).
On to Ac-GASWHPKFL-NH2 [SWHP], for which the “hydrolysis score” value is 0 (a score of 0 if no trace of the product of hydrolysis was seen after 8 hours of incubation) under setting [1] and 0 (a score of 0 if no trace of the product of hydrolysis was seen after 8 hours of incubation) under setting [2].
With Ac-GASWHQKFL-NH2 [SWHQ], the “hydrolysis score” value is on record as 0 (a score of 0 if no trace of the product of hydrolysis was seen after 8 hours of incubation) under setting [1] and 0 (a score of 0 if no trace of the product of hydrolysis was seen after 8 hours of incubation) under setting [2].
For the substance Ac-GASWHRKFL-NH2 [SWHR], the “hydrolysis score” value is listed as 3 (a score of 3 for detection at 8 hours) under setting [1] and 6 (a score of 6 for detection at 4 hours) under setting [2].
Regarding Ac-GASWHSKFL-NH2 [SWHS], the “hydrolysis score” value is reported as 0 (a score of 0 if no trace of the product of hydrolysis was seen after 8 hours of incubation) under setting [1] and 0 (a score of 0 if no trace of the product of hydrolysis was seen after 8 hours of incubation) under setting [2].
Ac-GASWHTKFL-NH2 [SWHT]: the “hydrolysis score” value runs as follows: under setting [1], 0 (a score of 0 if no trace of the product of hydrolysis was seen after 8 hours of incubation); under setting [2], 0 (a score of 0 if no trace of the product of hydrolysis was seen after 8 hours of incubation).
For Ac-GASWHVKFL-NH2 [SWHV], the “hydrolysis score” value under setting [1] is reported as 3 (a score of 3 for detection at 8 hours) and the “hydrolysis score” value under setting [2] is 12 (a score of 12, if it was seen to be partially hydrolysed at 2 hours).
For Ac-GASWHWKFL-NH2 [SWHW], in that order: 4 (a score of 4 for detection at 6 hours) and 6 (a score of 6 for detection at 4 hours).
For Ac-GASWHYKFL-NH2 [SWHY], in that order: 0 (a score of 0 if no trace of the product of hydrolysis was seen after 8 hours of incubation) and 6 (a score of 6 for detection at 4 hours).
Take Ac-GASYHAKFL-NH2 [SYHA]: the “hydrolysis score” value reads like this: under setting [1], 0 (a score of 0 if no trace of the product of hydrolysis was seen after 8 hours of incubation); under setting [2], 0 (a score of 0 if no trace of the product of hydrolysis was seen after 8 hours of incubation).
Consider Ac-GASYHDKFL-NH2 [SYHD], for which the “hydrolysis score” value under setting [1] is on record as 0 (a score of 0 if no trace of the product of hydrolysis was seen after 8 hours of incubation) and the “hydrolysis score” value under setting [2] is reported as 0 (a score of 0 if no trace of the product of hydrolysis was seen after 8 hours of incubation).
Regarding Ac-GASYHEKFL-NH2 [SYHE], the “hydrolysis score” value was 0 (a score of 0 if no trace of the product of hydrolysis was seen after 8 hours of incubation) under setting [1] and 0 (a score of 0 if no trace of the product of hydrolysis was seen after 8 hours of incubation) under setting [2].
With Ac-GASYHFKFL-NH2 [SYHF], the “hydrolysis score” value is, setting by setting: under setting [1], 3 (a score of 3 for detection at 8 hours); under setting [2], 4 (a score of 4 for detection at 6 hours).
For Ac-GASYHGKFL-NH2 [SYHG], in that order: 0 (a score of 0 if no trace of the product of hydrolysis was seen after 8 hours of incubation) and 0 (a score of 0 if no trace of the product of hydrolysis was seen after 8 hours of incubation).
For the substance Ac-GASYHHKFL-NH2 [SYHH], the “hydrolysis score” value runs as follows: under setting [1], 4 (a score of 4 for detection at 6 hours); under setting [2], 4 (a score of 4 for detection at 6 hours).
Ac-GASYHIKFL-NH2 [SYHI]: the “hydrolysis score” value is, setting by setting: under setting [1], 4 (a score of 4 for detection at 6 hours); under setting [2], 6 (a score of 6 for detection at 4 hours).
On to Ac-GASYHKKFL-NH2 [SYHK], for which the “hydrolysis score” value runs as follows: under setting [1], 4 (a score of 4 for detection at 6 hours); under setting [2], 6 (a score of 6 for detection at 4 hours).
For Ac-GASYHLKFL-NH2 [SYHL], in that order: 4 (a score of 4 for detection at 6 hours) and 6 (a score of 6 for detection at 4 hours).
For Ac-GASYHMKFL-NH2 [SYHM], in that order: 0 (a score of 0 if no trace of the product of hydrolysis was seen after 8 hours of incubation) and 0 (a score of 0 if no trace of the product of hydrolysis was seen after 8 hours of incubation).
Regarding Ac-GASYHNKFL-NH2 [SYHN], the “hydrolysis score” value runs as follows: under setting [1], 0 (a score of 0 if no trace of the product of hydrolysis was seen after 8 hours of incubation); under setting [2], 0 (a score of 0 if no trace of the product of hydrolysis was seen after 8 hours of incubation).
For Ac-GASYHPKFL-NH2 [SYHP], the “hydrolysis score” value by setting is: under setting [1], 0 (a score of 0 if no trace of the product of hydrolysis was seen after 8 hours of incubation); under setting [2], 0 (a score of 0 if no trace of the product of hydrolysis was seen after 8 hours of incubation).
Turning to Ac-GASYHQKFL-NH2 [SYHQ], the “hydrolysis score” value reads like this: under setting [1], 0 (a score of 0 if no trace of the product of hydrolysis was seen after 8 hours of incubation); under setting [2], 0 (a score of 0 if no trace of the product of hydrolysis was seen after 8 hours of incubation).
For the substance Ac-GASYHRKFL-NH2 [SYHR], the “hydrolysis score” value runs as follows: under setting [1], 4 (a score of 4 for detection at 6 hours); under setting [2], 6 (a score of 6 for detection at 4 hours).
For Ac-GASYHSKFL-NH2 [SYHS], in that order: 0 (a score of 0 if no trace of the product of hydrolysis was seen after 8 hours of incubation) and 0 (a score of 0 if no trace of the product of hydrolysis was seen after 8 hours of incubation).
For Ac-GASYHTKFL-NH2 [SYHT], in that order: 0 (a score of 0 if no trace of the product of hydrolysis was seen after 8 hours of incubation) and 0 (a score of 0 if no trace of the product of hydrolysis was seen after 8 hours of incubation).
For Ac-GASYHVKFL-NH2 [SYHV], in that order: 6 (a score of 6 for detection at 4 hours) and 4 (a score of 4 for detection at 6 hours).
As to Ac-GASYHWKFL-NH2 [SYHW], the “hydrolysis score” value is given as 6 (a score of 6 for detection at 4 hours) under setting [1] and 6 (a score of 6 for detection at 4 hours) under setting [2].
Turning to Ac-GASYHYKFL-NH2 [SYHY], the “hydrolysis score” value by setting is: under setting [1], 3 (a score of 3 for detection at 8 hours); under setting [2], 4 (a score of 4 for detection at 6 hours).
Regarding Ac-GATAHAKFL-NH2 [TAHA], the “hydrolysis score” value is 0 (a score of 0 if no trace of the product of hydrolysis was seen after 8 hours of incubation) under setting [3] and 0 (a score of 0 if no trace of the product of hydrolysis was seen after 8 hours of incubation) under setting [4].
Take Ac-GATAHDKFL-NH2 [TAHD]: the “hydrolysis score” value reads like this: under setting [3], 0 (a score of 0 if no trace of the product of hydrolysis was seen after 8 hours of incubation); under setting [4], 0 (a score of 0 if no trace of the product of hydrolysis was seen after 8 hours of incubation).
Turning to Ac-GATAHFKFL-NH2 [TAHF], the “hydrolysis score” value was 0 (a score of 0 if no trace of the product of hydrolysis was seen after 8 hours of incubation) under setting [3] and 0 (a score of 0 if no trace of the product of hydrolysis was seen after 8 hours of incubation) under setting [4].
Regarding Ac-GATAHGKFL-NH2 [TAHG], the “hydrolysis score” value by setting is: under setting [3], 0 (a score of 0 if no trace of the product of hydrolysis was seen after 8 hours of incubation); under setting [4], 0 (a score of 0 if no trace of the product of hydrolysis was seen after 8 hours of incubation).
For the substance Ac-GATAHHKFL-NH2 [TAHH], the “hydrolysis score” value reads like this: under setting [3], 0 (a score of 0 if no trace of the product of hydrolysis was seen after 8 hours of incubation); under setting [4], 0 (a score of 0 if no trace of the product of hydrolysis was seen after 8 hours of incubation).
